Read-outs that look alike come from different tables or passages of the source.
How the values were obtained:
BaF3-FLT3-ITD-N676D = assay: cells; parameters: species or system Ba/F3 stable lines
BaF3-FLT3-D835V = assay: cells; parameters: species or system Ba/F3 stable lines
BaF3-FLT3-ITD-Y842H = assay: cells; parameters: species or system Ba/F3 stable lines
BaF3-tel-FLT3-K663Q = assay: cells; parameters: species or system Ba/F3 stable lines
BaF3-tel-FLT3-D835Y = assay: cells; parameters: species or system Ba/F3 stable lines
BaF3-FLT3-ITD-D835Y = assay: cells; parameters: species or system Ba/F3 stable lines
BaF3-FLT3-D835H = assay: cells; parameters: species or system Ba/F3 stable lines
BaF3-FLT3-MOLM-ITD = assay: cells; parameters: species or system Ba/F3 stable lines
BaF3-tel-FLT3-R834Q = assay: cells; parameters: species or system Ba/F3 stable lines
EOL-1^PDGFRα = assay: cells; parameters: species or system human leukemia lines named per line
U937^Flt3-WT = assay: cells; parameters: species or system human leukemia lines named per line
KG1^FGFR1OP2-FGFR1 = assay: cells; parameters: species or system human leukemia lines named per line
HL60^Flt3-WT = assay: cells; parameters: species or system human leukemia lines named per line
MOLT4^Flt3-WT = assay: cells; parameters: species or system human leukemia lines named per line
PDGFRα = PDGFRα (Homo sapiens, UniProt P16234); assay: FRET-based Z'-Lyte kinase assay, parallel comparison; assay type: biochemical
Chain of PDGFRα (P16234 24-1089): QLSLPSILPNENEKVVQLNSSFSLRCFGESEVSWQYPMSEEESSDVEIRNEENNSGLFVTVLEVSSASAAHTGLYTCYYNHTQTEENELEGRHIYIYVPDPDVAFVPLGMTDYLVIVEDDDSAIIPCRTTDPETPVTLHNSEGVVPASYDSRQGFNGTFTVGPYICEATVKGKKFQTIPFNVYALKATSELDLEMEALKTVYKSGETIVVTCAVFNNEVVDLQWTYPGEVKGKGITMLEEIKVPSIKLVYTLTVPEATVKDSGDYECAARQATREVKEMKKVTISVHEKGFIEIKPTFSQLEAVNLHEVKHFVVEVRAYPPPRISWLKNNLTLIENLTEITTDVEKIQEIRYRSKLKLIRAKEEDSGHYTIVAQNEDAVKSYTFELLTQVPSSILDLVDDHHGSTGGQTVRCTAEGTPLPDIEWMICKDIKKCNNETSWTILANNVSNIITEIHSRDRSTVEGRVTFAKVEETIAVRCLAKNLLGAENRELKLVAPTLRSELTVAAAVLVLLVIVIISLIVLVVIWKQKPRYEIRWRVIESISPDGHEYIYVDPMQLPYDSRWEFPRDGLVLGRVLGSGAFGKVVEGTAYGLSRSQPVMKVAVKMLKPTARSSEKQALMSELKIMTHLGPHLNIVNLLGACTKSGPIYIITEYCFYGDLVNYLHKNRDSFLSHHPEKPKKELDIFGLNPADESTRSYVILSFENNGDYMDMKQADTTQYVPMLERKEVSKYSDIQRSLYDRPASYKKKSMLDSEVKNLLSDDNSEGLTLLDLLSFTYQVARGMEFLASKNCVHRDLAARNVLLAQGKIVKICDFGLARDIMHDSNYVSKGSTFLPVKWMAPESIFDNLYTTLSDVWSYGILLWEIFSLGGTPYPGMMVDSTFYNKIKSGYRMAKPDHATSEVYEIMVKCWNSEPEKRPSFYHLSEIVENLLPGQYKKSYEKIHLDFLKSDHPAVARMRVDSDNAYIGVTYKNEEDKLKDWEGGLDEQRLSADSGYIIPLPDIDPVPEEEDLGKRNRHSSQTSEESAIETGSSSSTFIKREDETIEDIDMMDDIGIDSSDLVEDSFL

MOLM-13^Flt3-ITD = assay: cells; parameters: species or system human leukemia lines named per line
MV411^Flt3-ITD = assay: cells; parameters: species or system human leukemia lines named per line
THP1^Flt3-WT = assay: cells; parameters: species or system human leukemia lines named per line
BaF3-FLT3-ITD-D835N = assay: cells; parameters: species or system Ba/F3 stable lines; settings: read-out: Quizartinib / (AC220); 72 h proliferation; inhibitor
BaF3-FLT3-ITD-D835G = assay: cells; parameters: species or system Ba/F3 stable lines; settings: read-out: Quizartinib / (AC220); 72 h proliferation; inhibitor
BaF3-FLT3-ITD-F691I = assay: cells; parameters: species or system Ba/F3 stable lines; settings: read-out: Quizartinib / (AC220); 72 h proliferation; inhibitor
BaF3-Tel-FLT3-ITD = assay: cells; parameters: species or system Ba/F3 stable lines; settings: read-out: Quizartinib / (AC220); 72 h proliferation; inhibitor
BaF3-FLT3-ITD-D835V = assay: cells; parameters: species or system Ba/F3 stable lines; settings: read-out: Quizartinib / (AC220); 72 h proliferation; inhibitor
BaF3-tel-FLT3 = assay: cells; parameters: species or system Ba/F3 stable lines; settings: read-out: Quizartinib / (AC220); 72 h proliferation; inhibitor
BaF3-FLT3-ITD-G697R = assay: cells; parameters: species or system Ba/F3 stable lines; settings: read-out: Quizartinib / (AC220); 72 h proliferation; inhibitor
BaF3-FLT3-ITD-D835I = assay: cells; parameters: species or system Ba/F3 stable lines; settings: read-out: Quizartinib / (AC220); 72 h proliferation; inhibitor
BaF3-FLT3-ITD-Y842R = assay: cells; parameters: species or system Ba/F3 stable lines; settings: read-out: Quizartinib / (AC220); 72 h proliferation; inhibitor
NB4^Flt3-WT = assay: cells; parameters: species or system human leukemia lines named per line; settings: read-out: Quizaritinib (AC220); 72 h proliferation, mean ± SD; inhibitor
MEG01^Flt-WT = assay: cells; parameters: species or system human leukemia lines named per line; settings: read-out: Quizaritinib (AC220); 72 h proliferation, mean ± SD; inhibitor
[1] = Mus musculus, BaF3, 72 h, read-out: GZD824
[2] = 72 h, read-out: GZD824 (HQP1351)
[3] = Mus musculus, BaF3, 72 h, read-out: Midostaurin / (PKC412)
[4] = 72 h, read-out: Gilteritinib (ASP2215)
[5] = read-out: Quizartinib / (AC220), 72 h proliferation, inhibitor
[6] = read-out: Quizaritinib (AC220), 72 h proliferation, mean ± SD, inhibitor

SMILES: Cc1ccc(C(=O)Nc2ccc(CN3CCN(C)CC3)c(C(F)(F)F)c2)cc1C#Cc1cnc2[nH]ncc2c1 [GZD824]
- IC50 (BaF3-FLT3-ITD-N676D; [1]): 7.2 nM
- IC50 (BaF3-FLT3-D835V; [1]): 34.7 nM
- IC50 (BaF3-FLT3-ITD-Y842H; [1]): 3.2 nM
- IC50 (BaF3-tel-FLT3-K663Q; [1]): 853 nM
- IC50 (BaF3-tel-FLT3-D835Y; [1]): 5.7 nM
- IC50 (BaF3-FLT3-ITD-D835Y; [1]): 35.7 nM
- IC50 (BaF3-FLT3-D835H; [1]): 17.6 nM
- IC50 (BaF3-FLT3-MOLM-ITD; [1]): 0.8 nM
- IC50 (BaF3-tel-FLT3-R834Q; [1]): 76.2 nM
- IC50 (EOL-1^PDGFRα; [2]): 7.56 ± 2.73 nM
- IC50 (U937^Flt3-WT; [2]): 1170 ± 105 nM
- IC50 (KG1^FGFR1OP2-FGFR1; [2]): 3.66 ± 1.93 nM
- IC50 (HL60^Flt3-WT; [2]): 922 ± 210 nM
- IC50 (MOLT4^Flt3-WT; [2]): 246 ± 139 nM

SMILES: CO[C@@H]1[C@H](N(C)C(=O)c2ccccc2)C[C@H]2O[C@]1(C)n1c3ccccc3c3c4c(c5c6ccccc6n2c5c31)C(=O)NC4 [Midostaurin]
- IC50 (BaF3-FLT3-ITD-N676D; [3]): 62.4 nM
- IC50 (BaF3-tel-FLT3-R834Q; [3]): 63.1 nM

SMILES: CCc1nc(C(N)=O)c(Nc2ccc(N3CCC(N4CCN(C)CC4)CC3)c(OC)c2)nc1NC1CCOCC1 [gilteritinib]
- IC50 (PDGFRα): 148 ± 7.78 nM
- IC50 (MOLM-13^Flt3-ITD; [4]): 9.35 ± 2.23 nM
- IC50 (MV411^Flt3-ITD; [4]): 3.34 ± 0.91 nM
- IC50 (THP1^Flt3-WT; [4]): > 1000 nM
- IC50 (HL60^Flt3-WT; [4]): 689 ± 398 nM

SMILES: CC(C)(C)c1cc(NC(=O)Nc2ccc(-c3cn4c(n3)sc3cc(OCCN5CCOCC5)ccc34)cc2)no1 [quizartinib]
- IC50 (BaF3-FLT3-ITD-D835N): 1.6 nM
- IC50 (BaF3-FLT3-ITD-N676D; [5]): 8.3 nM
- IC50 (BaF3-FLT3-D835V; [5]): 40.2 nM
- IC50 (BaF3-FLT3-ITD-Y842H; [5]): 5.3 nM
- IC50 (BaF3-tel-FLT3-K663Q; [5]): > 1000 nM
- IC50 (BaF3-FLT3-ITD-D835G): 4.3 nM
- IC50 (BaF3-tel-FLT3-D835Y; [5]): 2.4 nM
- IC50 (BaF3-FLT3-ITD-D835Y; [5]): 35.5 nM
- IC50 (BaF3-FLT3-ITD-F691I): 95 nM
- IC50 (BaF3-Tel-FLT3-ITD): 2 nM
- IC50 (BaF3-FLT3-ITD-D835V): 126 nM
- IC50 (BaF3-tel-FLT3): 3.1 nM
- IC50 (BaF3-FLT3-D835H; [5]): 4 nM
- IC50 (BaF3-FLT3-MOLM-ITD; [5]): 0.8 nM
- IC50 (BaF3-tel-FLT3-R834Q; [5]): > 1000 nM
- IC50 (BaF3-FLT3-ITD-G697R): 22.8 nM
- IC50 (BaF3-FLT3-ITD-D835I): 183 nM
- IC50 (BaF3-FLT3-ITD-Y842R): 7.2 nM
- IC50 (NB4^Flt3-WT): 1990 ± 890 nM
- IC50 (MEG01^Flt-WT): 3.31 ± 1.56 µM
- IC50 (MOLM-13^Flt3-ITD; [6]): 5.67 ± 9.29 nM
- IC50 (MV411^Flt3-ITD; [6]): 1.07 ± 0.32 nM
- IC50 (THP1^Flt3-WT; [6]): > 1000 nM
- IC50 (EOL-1^PDGFRα; [6]): 1510 ± 451 nM
- IC50 (U937^Flt3-WT; [6]): 1430 ± 246 nM
- IC50 (KG1^FGFR1OP2-FGFR1; [6]): 1020 ± 572 nM
- IC50 (HL60^Flt3-WT; [6]): 1170 ± 72.1 nM
- IC50 (MOLT4^Flt3-WT; [6]): 1950 ± 1750 nM

— PMC7125355 (Translational Oncology, 2020)
